The text below walks through data of patent US10752913B2, “Selectable marker genes” (Dow AgroSciences LLC, priority 2006, dated 2020).

Assay type in all cases: cell-based
In assay [1] the test system is NT-1 tobacco cells transformed with pDAB3778 (DSM-2). Put plainly: Tobacco cell culture transformation, selection frequency. The conditions noted are these: second experiment. On the procedure:
Four days prior to transformation, a 1 week old NT-1 tobacco suspension, which was being subcultured every 7 days, was subcultured to fresh medium by adding 2 ml of the NT-1 culture or 1 ml of packed cells into 40 ml NT-1 B media. The subcultured suspension was maintained in the dark at 25±1° C. on a shaker at 125 rpm.
A 50% glycerol stock of Agrobacterium tumefaciens [strain LBA4404] harboring a binary vector of interest was used to initiate a liquid overnight culture by adding 20, 100, or […] to 30 ml YEP liquid (10 g/L yeast extract, 10 g/L Peptone, 5 g/L NaCl, 0-10 g/L Sucrose) containing 50-100 mg/L spectinomycin. The bacterial culture was incubated in the dark at 28° C. in an incubator shaker at 150-250 rpm until the OD600 was 1.5±0.2. This took approximately 18-20 hrs.
For each vector tested, 20-70 mL of 4-day old suspension cells were transferred into a sterile vessel, to which 500-1750 μl of Agrobacterium suspension at the proper OD was added. To ensure a uniform mixture was achieved, the cells were pipetted up and down 5 times with a 10 ml wide-bore pipet. The uniform suspension was then drawn up into a 25 ml barrel of a repeat pipetter and 250 μl of the suspension was dispensed per well into 24-well plates, continuing until the suspension was exhausted. The well plates were wrapped in parafilm and cultured in the dark at 25±1° C. without shaking for a 3 day co-cultivation.
Following the co-cultivation, all excess liquid was removed from the individual wells with a 1 mL pipet tip, and remaining cells were resuspended in 1 ml NTC liquid (NT-1 B medium containing 500 mg/L carbenicillin, added after autoclaving). The contents of an individual well were dispersed across the entire surface of 100×25 mm selection plates using disposable transfer pipets. Selection media consisted of NTC media solidified with 8 g/l TC agar supplemented with 7.5 to 15 mg/L bialaphos or technical grade glufosinate ammonium, added after autoclaving. All selection plates, left unwrapped, were maintained in the dark at 28° C.
Putative transformants appeared as small clusters of callus on a background of dead, non-transformed cells. Calli were isolated approximately 2-6 weeks post-transformation. Each callus isolate was transferred to its own 60×20 mm plate containing the same selection medium and allowed to grow for approximately 2 weeks before being submitted for analysis.
A side-by-side experiment comparing DSM-2 (v2) with PAT was completed. In the study, 100% of the PAT selection plates produced at least one PCR positive isolate on 10 mg/L bialaphos media, whereas 79% of the DSM-2 (v2) selection plates produced at least one PCR positive isolate.
In a second experiment, DSM-2 (v2)-treated tobacco cells were selected upon 7.5, 10, 12.5, or 15 mg/L bialaphos or technical grade glufosinate ammonium. Transformation frequencies (% of selection plates producing at least one callus) following verification by coding region PCR are listed in the table below.

Assay [2] has as its system Escherichia coli BL21—Star (DE3). The assay is described as follows: Bacterial growth on minimal media containing glufosinate (BASTA). The conditions noted are these: only strain of five tested. On the procedure: Selected cell lines of Escherichia coli and Agrobacterium tumefaciens were inoculated on minimal media containing incrementally increasing concentrations of Glufosinate (BASTA). The cell lines; BL21—Star (DE3), Top10, DH5═, Agrobacterium tumefaciens C58, and Agrobacterium tumefaciens LBA4404s were initially grown up on complex media. The Escherichia coli strains were grown in LB and the Agrobacterium tumefaciens strains were grown in YEP. Five microliters of bacterial culture was inoculated and dispersed evenly onto minimal media plates containing various concentrations of glufosinate. The concentrations consisted of 0 μg/ml, 250 μg/ml, 500 μg/ml, 1000 μg/ml, 2000 μg/ml, and 4000 μg/ml of BASTA. In addition, the bacterial strains were inoculated onto a plate of complex media as a control—Agrobacterium tumefaciens strains were inoculated on YEP agar plates, and Escherichia coli strains were inoculated on LB agar plates. The plates containing the Escherichia coli strains were incubated at 37° C. for 24 hours. The plates containing the Agrobacterium tumefaciens strains were incubate at 25° C. for 48 hours. […] Table 7 illustrates the capability of the various strains to grow on minimal media containing glufosinate.

The subject of assay [3] is Escherichia coli BL21—Star (DE3) expressing DSM-2 (v2) (pDAB4412). Put plainly: Complementation of cell growth on glufosinate, pET expression. From the text:
A pET28a(+) expression plasmid containing PAT (v3) was constructed as a positive control. PAT (v3) was cloned as an NcoI-SacI fragment into corresponding restriction sites of pDAB779. Positive clones containing the PAT (v3) gene fragment were verified via restriction enzyme digestion. This construct was labeled as pDAB4434.
The plasmids, pDAB4434, pDAB4412, and an empty pET vector (control) were transformed into Escherichia coli BL21—Star (DE3) bacterial cells. Expression cultures were initiated with 10-200 freshly transformed colonies into 250 mL LB medium containing 50 μg/ml antibiotic and 75 μM IPTG (isopropyl-[…]). The cultures were grown at 28° C. for 24 hours at 180-200 rpm. Five microliters of the culture was inoculated onto a complex media control and minimal media containing incrementally increasing concentrations of glufosinate and 20 μM IPTG. The cultures were dispersed evenly over the plates and incubated at 28° C. for 24 hours.

The test system of assay [4] is Escherichia coli BL21—Star (DE3) with 3264 (CsVMV promoter//DSM-2). Put plainly: Complementation on glufosinate with plant/viral promoters. To be noted: DSM-2 driven by CsVMV promoter. On the procedure: (§1) Plasmid constructs in which the DSM-2 (v2) and PAT gene coding sequences were expressed, under either the viral promoters CsVMV or the plant promoter AtUbi10, were assayed for complementation on minimal media containing glufosinate. The plasmids 3778 (Rb7 MARv3//AtUbi10 promoter//DSM-2 (v2)//Atu Orf 1 3′UTR), 3779 (Rb7 MARv3//AtUbi10 promoter//PAT//Atu Orf 1 3′UTR), 3264 (CsVMV promoter//DSM-2//Atu Orf24 3′UTR), 3037 (CsVMV promoter//PAT//Atu Orf 25/26 3′UTR), and 770 (control plasmid containing CsVMV promoter//GUS v3//Atu Orf 24 3′UTR) were transformed into Escherichia coli BL21—Star (DE3) and grown up in complex media. Five microliters of the cultures were plated on minimal media containing increasing concentrations of Glufosinate and incubated at 37° C. for 48 hours.

Assay [5] concerns Escherichia coli BL21—Star (DE3) with 3778 (AtUbi10 promoter//DSM-2 (v2)). The description is as above. The conditions noted are these: DSM-2 driven by At Ubi10 promoter. On the procedure:
as §1

Turning to `C[C@H](NC(=O)[C@H](C)NC(=O)[C@@H](N)CCP(C)(=O)O)C(=O)O` [Bialaphos], the “Transformation frequencies (% of selection plates producing at least one callus) following verification by coding region PCR” value in assay [1] (7.5 mg/L in selection medium) stood at 38.9%; in assay [1] (10 mg/L in selection medium), 44.4%; in assay [1] (12.5 mg/L in selection medium), 38.9%; in assay [1] (15 mg/L in selection medium), 22.2%.
Take `CP(=O)(O)CCC(N)C(=O)O` (stereo not drawn) [glufosinate]: in assay [2], the “inhibition of growth on minimal media” value is reported as “substantially inhibited”. Also, the “glufosinate concentration on minimal media to which DSM-2 expression complemented resistance” value in assay [3] came to 400 µg/mL. Moreover, the “glufosinate concentration in minimal media to which resistance was provided” value in assay [4] and in assay [5] was 200 µg/mL in each case. Also, the “Transformation frequencies (% of selection plates producing at least one callus) following verification by coding region PCR” value in assay [1] (7.5 mg/L in selection medium) was found to be 55.6%; in assay [1] (10 mg/L in selection medium) it was 50.0%; in assay [1] (12.5 mg/L in selection medium), 44.4%; in assay [1] (15 mg/L in selection medium) it was 38.9%.
